Measured values as given in the supplement of paper PMC10307832.

Tests used:
Assay in all cases: relative viability (nuclei count vs DMSO), 5 days (fraction); higher = more cells survive
[1] = compound: C[C@@H](Oc1cc(-c2cnn(C3CCNCC3)c2)cnc1N)c1c(Cl)ccc(F)c1Cl [Crizotinib] + CC(=O)Nc1cccc(-n2c(=O)n(C3CC3)c(=O)c3c(Nc4ccc(I)cc4F)n(C)c(=O)c(C)c32)c1 [Trametinib] (partner 0.02 µM)
Method in brief: (§1)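 After 5 days of treatment, lung cancer cells in 1536-well plates were fixed and stained in a single step (final 0.05% Triton X-100, 1% formaldehyde, 1 ug/ml Hoechst) and their nuclei counted on 4× images. Treatment had been applied by pin tool the day after seeding as one drug alone or as a fixed anchor-drug dose with five library-drug doses (not always all listed) in √10 steps. Relative viability is the nuclei count of treated wells divided by that of vehicle wells, and values are medians of duplicate plates.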

[2] = compound: O=C(c1cc(Cc2n[nH]c(=O)c3ccccc23)ccc1F)N1CCN(C(=O)C2CC2)CC1 [Olaparib] + COc1cccc2cc(-c3nc([C@H]4CC[C@H](C(=O)O)CC4)n4ncnc(N)c34)[nH]c12 [OSI-027] (partner 0.5 µM)
Method in brief: as §1

[3] = compound: C[C@@H](Oc1cc(-c2cnn(C3CCNCC3)c2)cnc1N)c1c(Cl)ccc(F)c1Cl [Crizotinib] + N=C(N)NC(=N)NCCc1ccccc1 [Phenformin] (partner 250 µM)
Method in brief: as §1

[4] = compound: CC(C)C[C@H](NC(=O)[C@H](CCc1ccccc1)NC(=O)CN1CCOCC1)C(=O)N[C@@H](Cc1ccccc1)C(=O)N[C@@H](CC(C)C)C(=O)[C@@]1(C)CO1 [Carfilzomib] + CS(=O)(=O)N1CCN(Cc2cc3nc(-c4cccc5[nH]ncc45)nc(N4CCOCC4)c3s2)CC1 [Pictilisib] (partner 1 µM)
Method in brief: as §1

LCLC-97TM1
relative viability ([1]; first compound 0.01 µM): 0.189
relative viability ([1]; first compound 0.03162 µM): 0.173
relative viability ([1]; first compound 0.1 µM): 0.209
relative viability ([1]; first compound 0.3162 µM): 0.173
relative viability ([1]; first compound 1 µM): 0.196
relative viability ([2]; first compound 0.08 µM): 0.525
relative viability ([2]; first compound 0.253 µM): 0.527
relative viability ([2]; first compound 2.53 µM): 0.587
relative viability ([2]; first compound 8 µM): 0.323
relative viability ([3]; first compound 0.01 µM): 0.472
relative viability ([3]; first compound 0.03162 µM): 0.468
relative viability ([3]; first compound 0.1 µM): 0.508
relative viability ([3]; first compound 0.3162 µM): 0.454
relative viability ([3]; first compound 1 µM): 0.441
relative viability ([4]; first compound 0.001 µM): 0.214
relative viability ([4]; first compound 0.003162 µM): 0.223
relative viability ([4]; first compound 0.01 µM): 0.122
relative viability ([4]; first compound 0.03162 µM): 0.114
relative viability ([4]; first compound 0.1 µM): 0.116

LCLC-103H
relative viability ([1]; first compound 0.01 µM): 0.644
relative viability ([1]; first compound 0.03162 µM): 0.646
relative viability ([1]; first compound 0.1 µM): 0.662
relative viability ([1]; first compound 0.3162 µM): 0.686
relative viability ([1]; first compound 1 µM): 0.642
relative viability ([2]; first compound 0.08 µM): 0.52
relative viability ([2]; first compound 0.253 µM): 0.432
relative viability ([2]; first compound 2.53 µM): 0.512
relative viability ([2]; first compound 8 µM): 0.412
relative viability ([3]; first compound 0.01 µM): 0.348
relative viability ([3]; first compound 0.03162 µM): 0.313
relative viability ([3]; first compound 0.1 µM): 0.337
relative viability ([3]; first compound 0.3162 µM): 0.328
relative viability ([3]; first compound 1 µM): 0.294
relative viability ([4]; first compound 0.001 µM): 0.616
relative viability ([4]; first compound 0.003162 µM): 0.659
relative viability ([4]; first compound 0.01 µM): 0.718
relative viability ([4]; first compound 0.03162 µM): 0.685
relative viability ([4]; first compound 0.1 µM): 0.347

LK-2
relative viability ([1]; first compound 0.01 µM): 0.858
relative viability ([1]; first compound 0.03162 µM): 0.749
relative viability ([1]; first compound 0.1 µM): 0.674
relative viability ([1]; first compound 0.3162 µM): 0.805
relative viability ([1]; first compound 1 µM): 0.728
relative viability ([2]; first compound 0.08 µM): 0.2
relative viability ([2]; first compound 0.253 µM): 0.193
relative viability ([2]; first compound 2.53 µM): 0.189
relative viability ([2]; first compound 8 µM): 0.175
relative viability ([3]; first compound 0.01 µM): 0.583
relative viability ([3]; first compound 0.03162 µM): 0.37
relative viability ([3]; first compound 0.1 µM): 0.221
relative viability ([3]; first compound 1 µM): 0.325
relative viability ([4]; first compound 0.003162 µM): 0.826
relative viability ([4]; first compound 0.01 µM): 0.64
relative viability ([4]; first compound 0.03162 µM): 0.266
relative viability ([4]; first compound 0.1 µM): 0.251

NCI-H522
relative viability ([1]; first compound 0.01 µM): 0.619
relative viability ([1]; first compound 0.03162 µM): 0.689
relative viability ([1]; first compound 0.1 µM): 0.799
relative viability ([1]; first compound 0.3162 µM): 0.703
relative viability ([1]; first compound 1 µM): 0.8
relative viability ([2]; first compound 0.08 µM): 0.783
relative viability ([2]; first compound 0.253 µM): 0.659
relative viability ([2]; first compound 2.53 µM): 0.723
relative viability ([2]; first compound 8 µM): 0.642
relative viability ([3]; first compound 0.01 µM): 0.702
relative viability ([3]; first compound 0.03162 µM): 0.612
relative viability ([3]; first compound 0.1 µM): 0.527
relative viability ([3]; first compound 0.3162 µM): 0.768
relative viability ([3]; first compound 1 µM): 0.649

NCI-H1299
relative viability ([4]; first compound 0.001 µM): 0.735
relative viability ([4]; first compound 0.003162 µM): 0.838
relative viability ([4]; first compound 0.01 µM): 0.6
relative viability ([4]; first compound 0.03162 µM): 0.0711
relative viability ([4]; first compound 0.1 µM): 0.0334

NCI-H1563
relative viability ([2]; first compound 0.08 µM): 0.75
relative viability ([2]; first compound 0.253 µM): 0.745
relative viability ([2]; first compound 2.53 µM): 0.806
relative viability ([2]; first compound 8 µM): 0.753
relative viability ([3]; first compound 0.01 µM): 0.607
relative viability ([3]; first compound 0.03162 µM): 0.681
relative viability ([3]; first compound 0.1 µM): 0.655
relative viability ([3]; first compound 0.3162 µM): 0.637
relative viability ([3]; first compound 1 µM): 0.682
relative viability ([4]; first compound 0.001 µM): 0.615
relative viability ([4]; first compound 0.003162 µM): 0.62
relative viability ([4]; first compound 0.01 µM): 0.689
relative viability ([4]; first compound 0.03162 µM): 0.595
relative viability ([4]; first compound 0.1 µM): 0.548

NCI-H1623
relative viability ([2]; first compound 0.08 µM): 0.511
relative viability ([2]; first compound 0.253 µM): 0.457
relative viability ([2]; first compound 2.53 µM): 0.474
relative viability ([2]; first compound 8 µM): 0.42
relative viability ([3]; first compound 0.01 µM): 0.557
relative viability ([3]; first compound 0.03162 µM): 0.499
relative viability ([3]; first compound 0.1 µM): 0.611
relative viability ([3]; first compound 0.3162 µM): 0.608
relative viability ([3]; first compound 1 µM): 0.551

NCI-H1648
relative viability ([1]; first compound 0.03162 µM): 0.462
relative viability ([1]; first compound 0.1 µM): 0.539
relative viability ([1]; first compound 0.3162 µM): 0.483
relative viability ([1]; first compound 1 µM): 0.463
relative viability ([2]; first compound 0.253 µM): 0.25
relative viability ([2]; first compound 8 µM): 0.223

NCI-H1703
relative viability ([4]; first compound 0.001 µM): 0.202
relative viability ([4]; first compound 0.003162 µM): 0.3
relative viability ([4]; first compound 0.01 µM): 0.17
relative viability ([4]; first compound 0.03162 µM): 0.16
relative viability ([4]; first compound 0.1 µM): 0.144

NCI-H2342
relative viability ([1]; first compound 0.01 µM): 0.818
relative viability ([1]; first compound 0.03162 µM): 0.896
relative viability ([1]; first compound 0.1 µM): 0.78
relative viability ([1]; first compound 0.3162 µM): 0.868
relative viability ([1]; first compound 1 µM): 0.829
relative viability ([2]; first compound 0.08 µM): 0.565
relative viability ([2]; first compound 0.253 µM): 0.54
relative viability ([2]; first compound 2.53 µM): 0.55
relative viability ([2]; first compound 8 µM): 0.564
relative viability ([3]; first compound 0.01 µM): 0.512
relative viability ([3]; first compound 0.03162 µM): 0.567
relative viability ([3]; first compound 0.1 µM): 0.54
relative viability ([3]; first compound 0.3162 µM): 0.549
relative viability ([3]; first compound 1 µM): 0.544

SW 900
relative viability ([1]; first compound 0.01 µM): 0.907
relative viability ([1]; first compound 0.03162 µM): 0.9
relative viability ([1]; first compound 0.1 µM): 0.752
relative viability ([1]; first compound 0.3162 µM): 0.938
relative viability ([1]; first compound 1 µM): 0.614
relative viability ([2]; first compound 0.08 µM): 0.693
relative viability ([2]; first compound 0.253 µM): 0.561
relative viability ([2]; first compound 2.53 µM): 0.565
relative viability ([2]; first compound 8 µM): 0.458
relative viability ([3]; first compound 0.01 µM): 0.556
relative viability ([3]; first compound 0.03162 µM): 0.651
relative viability ([3]; first compound 0.1 µM): 0.652
relative viability ([3]; first compound 0.3162 µM): 0.586
relative viability ([3]; first compound 1 µM): 0.723
